# Experimental data from US20210045385A1, “PYRIDAZINONE-SUBSTITUTED KETOXIMES AS HERBICIDES” (FMC Corporation, priority 2018, published 2021).
# Experiments:
# Type in all cases: in vivo
# [1] = tested on: Italian ryegrass (Lolium multiflorum); assay: Test A preemergence, visual plant response rating; details: for Ryegrass, Italian plant response rating: 125 g ai/ha, preemergence, 0 to 100 scale, 0 no effect, 100 complete control; for Ryegrass, Italian plant response rating (0 to 100 scale): 500 g ai/ha Preemergence, approx. 10 days
# Outline: (§1)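 Ratings use a 0–100 visual scale (100 = complete control) against untreated controls, scored about 10 days after greenhouse treatment. Test chemicals were formulated in surfactant-containing non-phytotoxic solvent and applied either as soil spray after planting (preemergence) or onto one- to two-leaf, 2–10 cm plants (postemergence).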
# [2] = tested on: barnyardgrass (Echinochloa crus-galli); assay: Test A preemergence, visual plant response rating; details: for Barnyardgrass plant response rating: 125 g ai/ha, preemergence, 0 to 100 scale, 0 no effect, 100 complete control; for Barnyardgrass plant response rating (0 to 100 scale): 500 g ai/ha Preemergence, approx. 10 days
# Outline: as §1
# [3] = tested on: foxtail, giant (giant foxtail, Setaria faberii); assay: Test A preemergence, visual plant response rating; details: for Foxtail, Giant plant response rating: 125 g ai/ha, preemergence, 0 to 100 scale, 0 no effect, 100 complete control; for Foxtail, Giant plant response rating (0 to 100 scale): 500 g ai/ha Preemergence, approx. 10 days
# Outline: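 Formulated in a non-phytotoxic solvent mixture including surfactant, each test chemical was sprayed onto the soil surface after sowing, or onto seedlings 2 to 10 cm high. Roughly 10 days later, plants were compared with untreated controls and rated for injury from 0 (no effect) to 100 (complete control).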
# kochia (Kochia scoparia) [4] = assay: Test A preemergence, visual plant response rating; details: for Kochia plant response rating: 125 g ai/ha, preemergence, 0 to 100 scale, 0 no effect, 100 complete control; for Kochia plant response rating (0 to 100 scale): 500 g ai/ha Preemergence, approx. 10 days
# Outline: as §1
# [5] = tested on: pigweed (Amaranthus retroflexus); assay: Test A preemergence, visual plant response rating; details: for Pigweed plant response rating: 125 g ai/ha, preemergence, 0 to 100 scale, 0 no effect, 100 complete control; for Pigweed plant response rating (0 to 100 scale): 500 g ai/ha Preemergence, approx. 10 days
# Outline: as §1
# [6] = tested on: ragweed (common ragweed, Ambrosia elatior); assay: Test A preemergence, visual plant response rating; details: for Ragweed plant response rating: 125 g ai/ha, preemergence, 0 to 100 scale, 0 no effect, 100 complete control; for Ragweed plant response rating (0 to 100 scale): 500 g ai/ha Preemergence, approx. 10 days
# Outline: as §1
# [7] = tested on: Italian ryegrass (Lolium multiflorum); assay: Test A postemergence, visual plant response rating; details: for Ryegrass, Italian plant response rating (0 to 100 scale): 500 g ai/ha, postemergence, 0 is no effect, 100 is complete control; for Ryegrass, Italian plant response rating: Postemergence, 125 g ai/ha, 0 to 100 scale (0 no effect, 100 complete control)
# Outline: as §1
# [8] = tested on: barnyardgrass (Echinochloa crus-galli); assay: Test A postemergence, visual plant response rating; details: for Barnyardgrass plant response rating (0 to 100 scale): 500 g ai/ha, postemergence, 0 is no effect, 100 is complete control; for Barnyardgrass plant response rating: Postemergence, 125 g ai/ha, 0 to 100 scale (0 no effect, 100 complete control)
# Outline: as §1
# [9] = tested on: blackgrass (Alopecurus myosuroides); assay: Test A postemergence, visual plant response rating; details: for Blackgrass plant response rating (0 to 100 scale): 500 g ai/ha, postemergence, 0 is no effect, 100 is complete control; for Blackgrass plant response rating: Postemergence, 125 g ai/ha, 0 to 100 scale (0 no effect, 100 complete control)
# Outline: as §1
# corn (Zea mays) = assay: Test A postemergence, visual plant response rating; details: for Corn plant response rating (0 to 100 scale): 500 g ai/ha, postemergence, 0 is no effect, 100 is complete control; for Corn plant response rating: Postemergence, 125 g ai/ha, 0 to 100 scale (0 no effect, 100 complete control)
# Outline: as §1
# [10] = tested on: foxtail, giant (giant foxtail, Setaria faberii); assay: Test A postemergence, visual plant response rating; details: for Foxtail, Giant plant response rating (0 to 100 scale): 500 g ai/ha, postemergence, 0 is no effect, 100 is complete control; for Foxtail, Giant plant response rating: Postemergence, 125 g ai/ha, 0 to 100 scale (0 no effect, 100 complete control)
# Outline: as §1
# [11] = tested on: galium (catchweed bedstraw, Galium aparine); assay: Test A postemergence, visual plant response rating; details: for Galium plant response rating (0 to 100 scale): 500 g ai/ha, postemergence, 0 is no effect, 100 is complete control; for Galium plant response rating: Postemergence, 125 g ai/ha, 0 to 100 scale (0 no effect, 100 complete control)
# Outline: as §1
# kochia (Kochia scoparia) [12] = assay: Test A postemergence, visual plant response rating; details: for Kochia plant response rating (0 to 100 scale): 500 g ai/ha, postemergence, 0 is no effect, 100 is complete control; for Kochia plant response rating: Postemergence, 125 g ai/ha, 0 to 100 scale (0 no effect, 100 complete control)
# Outline: as §1
# [13] = tested on: pigweed (Amaranthus retroflexus); assay: Test A postemergence, visual plant response rating; details: for Pigweed plant response rating (0 to 100 scale): 500 g ai/ha, postemergence, 0 is no effect, 100 is complete control; for Pigweed plant response rating: Postemergence, 125 g ai/ha, 0 to 100 scale (0 no effect, 100 complete control)
# Outline: as §1
# [14] = tested on: ragweed (common ragweed, Ambrosia elatior); assay: Test A postemergence, visual plant response rating; details: for Ragweed plant response rating (0 to 100 scale): 500 g ai/ha, postemergence, 0 is no effect, 100 is complete control; for Ragweed plant response rating: Postemergence, 125 g ai/ha, 0 to 100 scale (0 no effect, 100 complete control)
# Outline: as §1
# [15] = tested on: wheat (Triticum aestivum); assay: Test A postemergence, visual plant response rating; details: for Wheat plant response rating (0 to 100 scale): 500 g ai/ha, postemergence, 0 is no effect, 100 is complete control; for Wheat plant response rating: Postemergence, 125 g ai/ha, 0 to 100 scale (0 no effect, 100 complete control)
# Outline: as §1
# [16] = tested on: barnyardgrass (Echinochloa crus-galli); assay: Test B flooded paddy test, visual plant response rating; details: 250 g ai/ha, Flood, applied to paddy water, 2-leaf stage, evaluated after 13 to 15 days
# Outline: (§2)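 Compounds added straight into paddy water of pots flooded to 3 cm, with 2-leaf-stage plants of the four species; water level held throughout.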
# [17] = tested on: ducksalad (Heteranhera limosa); assay: as above; details: 250 g ai/ha, Flood, applied to paddy water, 2-leaf stage, evaluated after 13 to 15 days
# Outline: as §2
# rice (Oryza sativa) = assay: as above; details: 250 g ai/ha, Flood, applied to paddy water, 2-leaf stage, evaluated after 13 to 15 days
# Outline: as §2
# [18] = tested on: sedge, umbrella (small-flower umbrella sedge, Cyperus difformis); assay: as above; details: 250 g ai/ha, Flood, applied to paddy water, 2-leaf stage, evaluated after 13 to 15 days
# Outline: as §2
Structure (SMILES),"Ryegrass, Italian plant response rating [1]","Ryegrass, Italian plant response rating (0 to 100 scale) [1]",Barnyardgrass plant response rating [2],Barnyardgrass plant response rating (0 to 100 scale) [2],"Foxtail, Giant plant response rating [3]","Foxtail, Giant plant response rating (0 to 100 scale) [3]",Kochia plant response rating (kochia (Kochia scoparia) [4]),Kochia plant response rating (0 to 100 scale) (kochia (Kochia scoparia) [4]),Pigweed plant response rating [5],Pigweed plant response rating (0 to 100 scale) [5],Ragweed plant response rating [6],Ragweed plant response rating (0 to 100 scale) [6],"Ryegrass, Italian plant response rating (0 to 100 scale) [7]","Ryegrass, Italian plant response rating [7]",Barnyardgrass plant response rating (0 to 100 scale) [8],Barnyardgrass plant response rating [8],Blackgrass plant response rating (0 to 100 scale) [9],Blackgrass plant response rating [9],Corn plant response rating (0 to 100 scale) (corn (Zea mays)),Corn plant response rating (corn (Zea mays)),other results
CO/N=C(/c1ccccc1C#N)c1c(O)c(C)nn(C)c1=O [Compound 77],0,0,0,0,0,0,0,0,0,0,10,30,20,0,0,0,0,0,0,0,"Foxtail, Giant plant response rating (0 to 100 scale) [10]: 10; Foxtail, Giant plant response rating [10]: 0; Galium plant response rating (0 to 100 scale) [11]: 40; Galium plant response rating [11]: 40; Kochia plant response rating (0 to 100 scale) (kochia (Kochia scoparia) [12]): 30; Kochia plant response rating (kochia (Kochia scoparia) [12]): 0; Pigweed plant response rating (0 to 100 scale) [13]: 70; Pigweed plant response rating [13]: 30; Ragweed plant response rating (0 to 100 scale) [14]: 30; Ragweed plant response rating [14]: 0; Wheat plant response rating (0 to 100 scale) [15]: 0; Wheat plant response rating [15]: 0; Plant response rating, Barnyardgrass (0 to 100 scale, 0 is no effect, 100 is complete control) [16]: 0; Plant response rating, Ducksalad (0 to 100 scale, 0 is no effect, 100 is complete control) [17]: 0; Plant response rating, Rice (0 to 100 scale, 0 is no effect, 100 is complete control) (rice (Oryza sativa)): 0; Plant response rating, Sedge, Umbrella (0 to 100 scale, 0 is no effect, 100 is complete control) [18]: 0"
CCO/N=C(/c1c(O)c(C)nn(C)c1=O)c1cccc2ccccc12 [Compound 78],30,50,80,80,80,90,10,30,20,100,90,90,40,30,80,40,80,70,30,20,"Foxtail, Giant plant response rating (0 to 100 scale) [10]: 80; Foxtail, Giant plant response rating [10]: 70; Galium plant response rating (0 to 100 scale) [11]: 100; Galium plant response rating [11]: 90; Kochia plant response rating (0 to 100 scale) (kochia (Kochia scoparia) [12]): 70; Kochia plant response rating (kochia (Kochia scoparia) [12]): 60; Pigweed plant response rating (0 to 100 scale) [13]: 90; Pigweed plant response rating [13]: 80; Ragweed plant response rating (0 to 100 scale) [14]: 90; Ragweed plant response rating [14]: 80; Wheat plant response rating (0 to 100 scale) [15]: 0; Wheat plant response rating [15]: 0; Plant response rating, Barnyardgrass (0 to 100 scale, 0 is no effect, 100 is complete control) [16]: 0; Plant response rating, Ducksalad (0 to 100 scale, 0 is no effect, 100 is complete control) [17]: 0; Plant response rating, Rice (0 to 100 scale, 0 is no effect, 100 is complete control) (rice (Oryza sativa)): 0; Plant response rating, Sedge, Umbrella (0 to 100 scale, 0 is no effect, 100 is complete control) [18]: 0"
CCO/N=C(\c1c(O)c(C)nn(C)c1=O)c1cccc2ccccc12 [Compound 79],30,60,70,80,60,90,10,70,30,100,90,100,30,30,90,40,80,70,20,10,"Foxtail, Giant plant response rating (0 to 100 scale) [10]: 80; Foxtail, Giant plant response rating [10]: 60; Galium plant response rating (0 to 100 scale) [11]: 100; Galium plant response rating [11]: 90; Kochia plant response rating (0 to 100 scale) (kochia (Kochia scoparia) [12]): 80; Kochia plant response rating (kochia (Kochia scoparia) [12]): 70; Pigweed plant response rating (0 to 100 scale) [13]: 90; Pigweed plant response rating [13]: 80; Ragweed plant response rating (0 to 100 scale) [14]: 100; Ragweed plant response rating [14]: 90; Wheat plant response rating (0 to 100 scale) [15]: 0; Wheat plant response rating [15]: 0; Plant response rating, Barnyardgrass (0 to 100 scale, 0 is no effect, 100 is complete control) [16]: 0; Plant response rating, Ducksalad (0 to 100 scale, 0 is no effect, 100 is complete control) [17]: 0; Plant response rating, Rice (0 to 100 scale, 0 is no effect, 100 is complete control) (rice (Oryza sativa)): 0; Plant response rating, Sedge, Umbrella (0 to 100 scale, 0 is no effect, 100 is complete control) [18]: 0"
